This passage reports Ki results from patent US8232269B2, “Amide compounds useful in therapy” (Pfizer Inc., priority 2008, dated 2012).

One may read the Ki as the dissociation constant of the complex between target and ligand, obtained from inhibition or displacement.

Where only a bound is given, the exact number is not on record here.

For the experiment, the target named is T1, Progesterone Receptor (PR) (Homo sapiens, UniProt P06401).
T1 construct: endogenous in cells; host or cells: T47D human breast mammary carcinoma cells
T1 sequence (P06401 1-933): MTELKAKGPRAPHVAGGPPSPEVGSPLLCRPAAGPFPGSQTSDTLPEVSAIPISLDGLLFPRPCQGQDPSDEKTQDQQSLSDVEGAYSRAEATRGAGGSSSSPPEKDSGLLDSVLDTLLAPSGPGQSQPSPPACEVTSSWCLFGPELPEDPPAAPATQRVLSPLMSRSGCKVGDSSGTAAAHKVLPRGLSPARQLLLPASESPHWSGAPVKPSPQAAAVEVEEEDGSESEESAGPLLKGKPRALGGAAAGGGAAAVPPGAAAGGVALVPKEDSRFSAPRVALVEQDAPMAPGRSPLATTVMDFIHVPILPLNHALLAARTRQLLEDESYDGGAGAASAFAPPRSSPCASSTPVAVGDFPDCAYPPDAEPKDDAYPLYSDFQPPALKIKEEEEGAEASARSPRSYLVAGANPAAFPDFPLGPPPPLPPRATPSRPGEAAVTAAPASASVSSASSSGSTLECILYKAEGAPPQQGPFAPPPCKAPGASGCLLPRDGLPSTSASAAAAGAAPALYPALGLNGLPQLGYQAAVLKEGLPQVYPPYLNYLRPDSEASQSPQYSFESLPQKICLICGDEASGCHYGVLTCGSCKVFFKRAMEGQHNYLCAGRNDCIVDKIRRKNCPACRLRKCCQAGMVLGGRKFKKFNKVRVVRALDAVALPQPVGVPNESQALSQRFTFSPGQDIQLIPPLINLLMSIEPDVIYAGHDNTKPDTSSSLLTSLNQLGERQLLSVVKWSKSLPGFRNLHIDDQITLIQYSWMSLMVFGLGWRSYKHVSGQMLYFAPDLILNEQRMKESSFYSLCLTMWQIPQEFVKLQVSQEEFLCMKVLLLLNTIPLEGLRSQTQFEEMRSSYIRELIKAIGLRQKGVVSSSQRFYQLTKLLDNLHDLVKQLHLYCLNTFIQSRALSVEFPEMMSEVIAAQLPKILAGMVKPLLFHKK
Put plainly: In vitro functional assay for progesterone receptor (PR) antagonists: inhibition of progesterone-induced alkaline phosphatase expression in T47D cells. The class given is cell-based. The note with it: antagonist format, 5 nM progesterone, Ki calculated from IC50 with the Cheng-Prusoff equation. A digest of the protocol:
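Antagonist format: T47D cells (8750/well, phenol red-free DMEM + 5% CS-FCS) given half-log compound dilutions plus 5 nM progesterone (final), incubated overnight (≥16 h) at 37 °C. Alkaline phosphatase read by CSPD chemiluminescence after freeze-thaw lysis; 0.1 μM RU-486 final defines minimum.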
As for `Cc1cc(-c2nn(C(C)C)c(C(=O)NCC(C)(C)O)c2C)ccc1C#N` [Example 68, 3-(4-Cyano-3-methylphenyl)-N-(2-hydroxy-2-methylpropyl)-1-isopropyl-4-methyl-1H-pyrazole-5-carboxamide], the inhibition constant Ki was 6.38 nM.
In the case of `Cc1c(-c2ccc(C#N)cc2)nn(C2CCC2)c1C(=O)NCC1CC1` [Example 69, 3-(4-Cyanophenyl)-1-cyclobutyl-N-(cyclopropylmethyl)-4-methyl-1H-pyrazole-5-carboxamide], the Ki is 3.4 nM.
To `CNC(=O)c1c(C)c(-c2ccc(C#N)cc2)nn1C1CCC1` [Example 70, 3-(4-Cyanophenyl)-1-cyclobutyl-N,4-dimethyl-1H-pyrazole-5-carboxamide] belongs 5.51 nM; to `Cc1c(-c2ccc(C#N)cc2)nn(C2CCC2)c1C(=O)NC1CC1` [Example 71, 3-(4-Cyanophenyl)-1-cyclobutyl-N-cyclopropyl-4-methyl-1H-pyrazole-5-carboxamide], 8.25 nM.
The result for `Cc1c(-c2ccc(C#N)cc2)nn(C2CCC2)c1C(=O)NC[C@H](C)O` [Example 72, 3-(4-Cyanophenyl)-1-cyclobutyl-N-[(2S)-2-hydroxypropyl]-4-methyl-1H-pyrazole-5-carboxamide] reads 13.3 nM; that for `Cc1c(-c2ccc(C#N)cc2)nn(C2CCC2)c1C(=O)NC[C@@H](C)O` [Example 73, 3-(4-Cyanophenyl)-1-cyclobutyl-N-[(2R)-2-hydroxypropyl]-4-methyl-1H-pyrazole-5-carboxamide], 29.1 nM.
The result for `Cc1c(-c2ccc(C#N)cc2)nn(C2CCC2)c1C(=O)NCC(C)(C)O` [Example 74, 3-(4-Cyanophenyl)-1-cyclobutyl-N-(2-hydroxy-2-methylpropyl)-4-methyl-1H-pyrazole-5-carboxamide] reads 18.5 nM; that for `CNC(=O)c1c(C)c(-c2ccc(C#N)cc2)nn1C1CC1` [Example 81, 3-(4-Cyanophenyl)-1-cyclopropyl-N,4-dimethyl-1H-pyrazole-5-carboxamide], 61.2 nM; that for `Cc1c(-c2ccc(C#N)cc2)nn(C2CC2)c1C(=O)NCC1CC1` [Example 82, 3-(4-Cyanophenyl)-1-cyclopropyl-N-(cyclopropylmethyl)-4-methyl-1H-pyrazole-5-carboxamide], 70.2 nM.
`CCNC(=O)c1c(C)c(-c2ccc(C#N)cc2)nn1C1CC1` [Example 83, 3-(4-Cyanophenyl)-1-cyclopropyl-N-ethyl-4-methyl-1H-pyrazole-5-carboxamide]: the inhibition constant (Ki) is 96.5 nM.
To `Cc1c(-c2ccc(C#N)cc2)nn(C2CC2)c1C(=O)NC1CC1` [Example 84, 3-(4-Cyanophenyl)-N,1-dicyclopropyl-4-methyl-1H-pyrazole-5-carboxamide] belongs 125 nM; to `Cc1c(-c2ccc(C#N)cc2)nn(C2CC2)c1C(=O)NC(C)C` [Example 85, 3-(4-Cyanophenyl)-1-cyclopropyl-N-isopropyl-4-methyl-1H-pyrazole-5-carboxamide], 139 nM.
As to `Cc1c(-c2ccc(C#N)cc2)nn(C2CC2)c1C(=O)NC[C@H](C)O` [Example 86, 3-(4-Cyanophenyl)-1-cyclopropyl-N-[(2S)-2-hydroxypropyl]-4-methyl-1H-pyrazole-5-carboxamide], the Ki was > 137 nM.
The result for `Cc1c(-c2ccc(C#N)cc2)nn(C2CC2)c1C(=O)NC[C@@H](C)O` [Example 87, 3-(4-Cyanophenyl)-1-cyclopropyl-N-[(2R)-2-hydroxypropyl]-4-methyl-1H-pyrazole-5-carboxamide] reads > 191 nM; that for `CCNC(=O)c1c(C#N)c(-c2ccc(C#N)cc2)nn1C(C)C` [Example 89, 4-Cyano-3-(4-cyanophenyl)-N-ethyl-1-isopropyl-1H-pyrazole-5-carboxamide], 7.75 nM.
The result for `CC(C)NC(=O)c1c(C#N)c(-c2ccc(C#N)cc2)nn1C(C)C` [Example 91, 4-Cyano-3-(4-cyanophenyl)-N,1-diisopropyl-1H-pyrazole-5-carboxamide] reads 6.48 nM.
The result for `CNC(=O)c1c(C#N)c(-c2ccc(C#N)cc2)nn1C(C)C` [Example 92, 4-Cyano-3-(4-cyanophenyl)-1-isopropyl-N-methyl-1H-pyrazole-5-carboxamide] reads 8.84 nM.
Consider `CC(C)n1nc(-c2ccc(C#N)cc2)c(C#N)c1C(=O)NC1CC1` [Example 94, 4-Cyano-3-(4-cyanophenyl)-N-cyclopropyl-1-isopropyl-1H-pyrazole-5-carboxamide], for which the Ki was 10.6 nM.
With `CC(C)NC(=O)c1c(Cc2ccccc2)c(-c2ccc(C#N)cc2)nn1C(C)C` [Example 95, 4-Benzyl-3-(4-cyanophenyl)-N,1-diisopropyl-1H-pyrazole-5-carboxamide], the Ki is 315 nM.
To `CC(C)n1nc(-c2ccc(C#N)cc2)c(Cc2ccccc2)c1C(=O)NC1CC1` [Example 96, 4-Benzyl-3-(4-cyanophenyl)-N-cyclopropyl-1-isopropyl-1H-pyrazole-5-carboxamide] belongs 374 nM.
To `CCNC(=O)c1c(Cc2ccccc2)c(-c2ccc(C#N)cc2)nn1C(C)C` [Example 97, 4-Benzyl-3-(4-cyanophenyl)-N-ethyl-1-isopropyl-1H-pyrazole-5-carboxamide] belongs 399 nM.
To `CC(C)n1nc(-c2ccc(C#N)cc2)c(C2CC(F)(F)C2)c1C(=O)NC1CC1` [Example 98, 3-(4-Cyanophenyl)-N-cyclopropyl-4-(3,3-difluorocyclobutyl)-1-isopropyl-1H-pyrazole-5-carboxamide] belongs 208 nM.
For `CNC(=O)c1c(C2CC(F)(F)C2)c(-c2ccc(C#N)cc2)nn1C(C)C` [Example 99, 3-(4-Cyanophenyl)-4-(3,3-difluorocyclobutyl)-1-isopropyl-N-methyl-1H-pyrazole-5-carboxamide], the inhibition constant Ki is 52.5 nM.
To `CCNC(=O)c1c(C2CC(F)(F)C2)c(-c2ccc(C#N)cc2)nn1C(C)C` [Example 100, 3-(4-Cyanophenyl)-4-(3,3-difluorocyclobutyl)-N-ethyl-1-isopropyl-1H-pyrazole-5-carboxamide] belongs 151 nM; to `CCc1c(-c2ccc(C#N)cc2)nn(C(C)CC)c1C(=O)NC[C@H](C)O` (stereo partly drawn) [Example 108, 1-sec-Butyl-3-(4-cyanophenyl)-4-ethyl-N-[(2S)-2-hydroxypropyl]-1H-pyrazole-5-carboxamide], 91.4 nM; to `CCc1c(-c2ccc(C#N)cc2)nn(C(C)C)c1C(=O)NCC1CC1` [Example 110, 3-(4-Cyanophenyl)-N-(cyclopropylmethyl)-4-ethyl-1-isopropyl-1H-pyrazole-5-carboxamide], 8.24 nM.
The result for `CCc1c(-c2ccc(C#N)cc2)nn(C(C)C)c1C(=O)NC1CC1` [Example 111, 3-(4-Cyanophenyl)-N-cyclopropyl-4-ethyl-1-isopropyl-1H-pyrazole-5-carboxamide] reads 23.1 nM; that for `CCc1c(-c2ccc(C#N)cc2)nn(C(C)C)c1C(=O)NC` [Example 112, 3-(4-Cyanophenyl)-4-ethyl-1-isopropyl-N-methyl-1H-pyrazole-5-carboxamide], 26 nM; that for `CNC(=O)CNC(=O)c1c(C)c(-c2ccc(C#N)c(C)c2)nn1C(C)C` [Example 113, 3-(4-Cyano-3-methylphenyl)-1-isopropyl-4-methyl-N-[2-(methylamino)-2-oxoethyl]-1H-pyrazole-5-carboxamide], 27.1 nM.
For `CCc1c(-c2ccc(C#N)cc2)nn(C(C)C)c1C(=O)NC[C@H](C)O` [Example 114, 3-(4-Cyanophenyl)-4-ethyl-N-[(2S)-2-hydroxypropyl]-1-isopropyl-1H-pyrazole-5-carboxamide], the inhibition constant Ki is 30.9 nM.
The result for `CCc1c(-c2ccc(C#N)cc2)nn(C(C)C)c1C(=O)NC[C@@H](C)O` [Example 115, 3-(4-Cyanophenyl)-4-ethyl-N-[(2R)-2-hydroxypropyl]-1-isopropyl-1H-pyrazole-5-carboxamide] reads 85 nM; that for `CCNC(=O)c1c(CC)c(-c2ccc(C#N)cc2)nn1C(C)C` [Example 116, 3-(4-Cyanophenyl)-N,4-diethyl-1-isopropyl-1H-pyrazole-5-carboxamide], 32.1 nM; that for `CCc1c(-c2ccc(C#N)cc2)nn(C(C)C)c1C(=O)NC(C)C` [Example 117, 3-(4-Cyanophenyl)-4-ethyl-N,1-diisopropyl-1H-pyrazole-5-carboxamide], 36.4 nM.
Turning to `CCc1c(-c2ccc(C#N)cc2)nn(C(C)C)c1C(=O)NCC(C)(C)O` [Example 118, 3-(4-Cyanophenyl)-4-ethyl-N-(2-hydroxy-2-methylpropyl)-1-isopropyl-1H-pyrazole-5-carboxamide], the inhibition constant (Ki) was 54.8 nM.
